Columns and labels:
[1] = molecular target: T1, Metabotropic glutamate receptor 2 (Rattus norvegicus, UniProt P31421); assay: Partial displacement of [3H]LY354740 from recombinant rat mGluR2
[2] = molecular target: T1, Metabotropic glutamate receptor 2; assay: Antagonist activity at recombinant rat mGluR2 expressed in forskolin-stimulated CHO cells assessed as inhibition of (1S,3R)-ACPD induced cAMP production; type: functional, cell-based
[3] = molecular target: T1, Metabotropic glutamate receptor 2; assay: Antagonist activity at rat mGluR2 receptor expressed in CHO cells assessed as inhibition of GIRK current; type: functional, cell-based
[4] = molecular target: Metabotropic glutamate receptor 3 (Rattus norvegicus, UniProt P31422); assay: Antagonist activity at rat mGluR3 receptor expressed in CHO cells assessed as inhibition of GIRK current; type: functional, cell-based
[5] = molecular target: Metabotropic glutamate receptor 2 (Homo sapiens, UniProt Q14416); assay: Antagonist activity at human mGluR2 receptor expressed in CHO cells assessed as inhibition of GIRK current; type: functional, cell-based
Sequence of Metabotropic glutamate receptor 2 (Homo sapiens, UniProt Q14416) (Q14416 whole entry): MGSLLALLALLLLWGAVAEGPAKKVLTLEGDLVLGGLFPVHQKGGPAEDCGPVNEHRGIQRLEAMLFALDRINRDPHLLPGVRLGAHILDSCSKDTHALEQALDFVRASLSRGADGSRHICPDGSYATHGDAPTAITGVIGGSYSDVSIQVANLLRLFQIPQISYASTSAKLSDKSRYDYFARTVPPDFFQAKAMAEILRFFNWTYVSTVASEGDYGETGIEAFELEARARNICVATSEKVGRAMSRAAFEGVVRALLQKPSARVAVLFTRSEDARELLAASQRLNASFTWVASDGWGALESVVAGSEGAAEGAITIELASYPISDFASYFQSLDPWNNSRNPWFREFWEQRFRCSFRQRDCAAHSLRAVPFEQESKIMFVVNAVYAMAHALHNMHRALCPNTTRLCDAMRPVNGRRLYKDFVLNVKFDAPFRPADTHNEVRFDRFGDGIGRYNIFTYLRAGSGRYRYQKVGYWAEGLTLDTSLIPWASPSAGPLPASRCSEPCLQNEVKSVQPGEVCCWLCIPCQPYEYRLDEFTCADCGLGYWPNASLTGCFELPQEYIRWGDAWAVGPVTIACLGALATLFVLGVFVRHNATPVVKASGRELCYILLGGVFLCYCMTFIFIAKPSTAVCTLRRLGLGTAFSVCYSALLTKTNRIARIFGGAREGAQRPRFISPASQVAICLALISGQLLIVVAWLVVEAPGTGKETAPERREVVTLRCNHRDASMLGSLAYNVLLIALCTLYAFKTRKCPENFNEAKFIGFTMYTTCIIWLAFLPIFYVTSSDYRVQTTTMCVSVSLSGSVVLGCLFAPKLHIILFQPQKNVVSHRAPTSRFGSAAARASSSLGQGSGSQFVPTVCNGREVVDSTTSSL

Sequence of Metabotropic glutamate receptor 3 (P31422 whole entry): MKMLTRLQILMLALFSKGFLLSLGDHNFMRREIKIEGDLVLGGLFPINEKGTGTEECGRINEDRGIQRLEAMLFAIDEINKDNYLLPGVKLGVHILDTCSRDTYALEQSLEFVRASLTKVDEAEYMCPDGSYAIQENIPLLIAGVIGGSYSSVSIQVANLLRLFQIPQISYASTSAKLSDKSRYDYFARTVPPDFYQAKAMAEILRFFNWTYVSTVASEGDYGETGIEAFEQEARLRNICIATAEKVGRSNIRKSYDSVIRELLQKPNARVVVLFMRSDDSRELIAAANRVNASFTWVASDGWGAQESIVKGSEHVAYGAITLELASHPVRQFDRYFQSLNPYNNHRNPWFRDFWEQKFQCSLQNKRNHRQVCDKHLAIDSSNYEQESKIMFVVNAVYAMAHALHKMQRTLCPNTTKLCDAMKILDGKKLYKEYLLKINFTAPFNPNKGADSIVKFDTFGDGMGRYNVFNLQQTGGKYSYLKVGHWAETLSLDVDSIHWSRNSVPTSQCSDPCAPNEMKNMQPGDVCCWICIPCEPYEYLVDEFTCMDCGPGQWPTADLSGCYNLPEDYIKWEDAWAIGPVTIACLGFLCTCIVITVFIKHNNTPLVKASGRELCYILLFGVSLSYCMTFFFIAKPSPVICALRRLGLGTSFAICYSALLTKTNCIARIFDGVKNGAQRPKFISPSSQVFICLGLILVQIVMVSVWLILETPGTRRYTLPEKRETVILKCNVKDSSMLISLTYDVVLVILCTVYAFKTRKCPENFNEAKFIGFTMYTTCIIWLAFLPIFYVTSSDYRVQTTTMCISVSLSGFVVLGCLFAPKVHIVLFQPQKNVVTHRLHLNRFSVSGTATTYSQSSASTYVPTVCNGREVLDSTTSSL
T1 sequence (P31421 whole entry): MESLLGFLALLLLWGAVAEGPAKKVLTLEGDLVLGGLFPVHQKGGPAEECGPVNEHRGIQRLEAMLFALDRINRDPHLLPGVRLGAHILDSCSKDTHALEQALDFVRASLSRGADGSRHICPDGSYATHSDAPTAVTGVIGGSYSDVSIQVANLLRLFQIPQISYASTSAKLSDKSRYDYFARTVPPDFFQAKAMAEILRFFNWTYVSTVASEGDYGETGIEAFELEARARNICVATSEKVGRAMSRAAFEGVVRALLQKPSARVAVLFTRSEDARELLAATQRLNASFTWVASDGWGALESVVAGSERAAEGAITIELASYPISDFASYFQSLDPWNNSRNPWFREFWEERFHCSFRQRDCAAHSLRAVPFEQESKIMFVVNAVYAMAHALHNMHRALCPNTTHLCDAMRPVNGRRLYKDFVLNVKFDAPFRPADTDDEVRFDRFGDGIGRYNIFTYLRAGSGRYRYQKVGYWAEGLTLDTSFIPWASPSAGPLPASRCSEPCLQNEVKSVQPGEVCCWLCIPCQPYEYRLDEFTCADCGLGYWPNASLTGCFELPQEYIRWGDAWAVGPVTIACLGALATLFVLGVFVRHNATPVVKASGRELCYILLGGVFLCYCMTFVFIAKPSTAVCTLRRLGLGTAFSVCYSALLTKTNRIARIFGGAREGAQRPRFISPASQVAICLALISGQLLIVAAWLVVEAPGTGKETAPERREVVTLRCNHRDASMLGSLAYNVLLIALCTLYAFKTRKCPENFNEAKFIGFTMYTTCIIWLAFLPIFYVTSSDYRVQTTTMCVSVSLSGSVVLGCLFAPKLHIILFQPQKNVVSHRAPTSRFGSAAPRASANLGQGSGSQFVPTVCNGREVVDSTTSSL

Row | IC50 [1] [nM] | IC50 [2] [nM] | IC50 [3] [nM] | IC50 [4] [nM] | IC50 [5] [nM] | SMILES
1 | 12 | 18 | – | – | – | Cc1cc2c(cc1C(F)(F)F)NC(=O)CC(c1cccc(-c3ccnc(C#N)c3)c1)=N2
2 | 274 | – | – | – | – | Cc1cc2c(cc1C(F)(F)F)NC(=O)CC(c1cccc(-c3ccnc(CN(C)C)c3)c1)=N2
3 | 10 | 7 | – | – | – | Cc1cc2c(cc1C(F)(F)F)NC(=O)CC(c1cccc(-c3ccnc(C4CCCC4)c3)c1)=N2
4 | 13 | 5 | – | – | – | Cc1ccc(-c2cccc(C3=Nc4cc(C)c(C(F)(F)F)cc4NC(=O)C3)c2)cn1
5 | 13 | 6 | – | – | – | COCc1cc(-c2cccc(C3=Nc4cc(C)c(C(F)(F)F)cc4NC(=O)C3)c2)ccn1
6 | 13 | 18 | – | – | – | Cc1cc2c(cc1C(F)(F)F)NC(=O)CC(c1cccc(-c3ccnc(CO)c3)c1)=N2
7 | 4 | 10 | – | – | – | Cc1cc2c(cc1C(F)(F)F)NC(=O)CC(c1cccc(-c3ccnc(C(C)C)c3)c1)=N2
8 | 10 | 6 | – | – | – | Cc1cc2c(cc1C(F)(F)F)NC(=O)CC(c1cccc(-c3ccnc(C4CC4)c3)c1)=N2
9 | 13 | 16 | – | – | – | COc1cc(-c2cccc(C3=Nc4cc(C)c(C(F)(F)F)cc4NC(=O)C3)c2)ccn1
10 | 8 | 5 | – | – | – | CCc1cc(-c2cccc(C3=Nc4cc(C)c(C(F)(F)F)cc4NC(=O)C3)c2)ccn1
11 | 6 | 20 | – | – | – | Cc1cc2c(cc1C(F)(F)F)NC(=O)CC(c1cccc(-c3ccc(C4CC4)nc3)c1)=N2

Further lines, the compound ahead of its results:

Row | SMILES | IC50 [1] [nM] | IC50 [2] [nM] | IC50 [3] [nM] | IC50 [4] [nM] | IC50 [5] [nM]
12 | Cc1cc2c(cc1C(F)(F)F)NC(=O)CC(c1cccc(-c3ccnc(-c4ccccc4)c3)c1)=N2 | 118 | – | – | – | –
13 | O=C1CC(c2cccc(-n3ccnn3)c2)=Nc2ccc(-c3ccccc3F)cc2N1 | 12 | 27 | 11 | 33 | –
14 | CCc1ccc(-c2cccc(C3=Nc4cc(C)c(C(F)(F)F)cc4NC(=O)C3)c2)cn1 | 9 | 18 | – | – | –
15 | Cc1ccc2c(c1)NC(=O)CC(c1ccccc1)=N2 | 6400 | – | – | – | –
16 | Cc1cc2c(cc1C(F)(F)F)NC(=O)CC(c1cccc(-c3ccccn3)c1)=N2 | 26 | 30 | – | – | –
17 | O=C1CC(c2cccc(-c3ccncc3)c2)=Nc2ccc(C(F)(F)F)cc2N1 | 10 | 26 | 101 | 29 | 52
18 | Cc1cc2c(cc1C(F)(F)F)NC(=O)CC(c1cccc(-n3cncn3)c1)=N2 | 8 | 75 | – | – | –
19 | Cc1cc(-c2cccc(C3=Nc4cc(Cl)c(Cl)cc4NC(=O)C3)c2)ccn1 | 4 | 2 | – | 30 | 7
20 | COc1ccc(-c2cccc(C3=Nc4cc(C)c(C(F)(F)F)cc4NC(=O)C3)c2)cn1 | 5 | 10 | – | – | –
21 | Cc1cc2c(cc1C(F)(F)F)NC(=O)CC(c1cccc(-c3ccc(C(C)C)nc3)c1)=N2 | 10 | 10 | – | – | –
22 | Cc1cc2c(cc1C(F)(F)F)NC(=O)CC(c1cccc(-c3cncnc3)c1)=N2 | 23 | 48 | – | – | –
23 | Cc1cc2c(cc1C(F)(F)F)NC(=O)CC(c1cccc(-c3ccnc(-n4cccc4)c3)c1)=N2 | 59 | – | – | – | –
24 | O=C1CC(c2cccc(-c3ccncc3)c2)=Nc2ccc(Cl)cc2N1 | 8 | 3 | – | – | 10
25 | Cc1cc(-c2cccc(C3=Nc4cc(C(F)(F)F)c(C(F)(F)F)cc4NC(=O)C3)c2)cc(C)n1 | 7 | 7 | – | – | –
26 | Cc1cc(-c2cccc(C3=Nc4cc(C)c(C(F)(F)F)cc4NC(=O)C3)c2)cc(CO)n1 | 14 | 15 | – | – | –

From ChEMBL document CHEMBL1629525, “Synthesis and characterization of 1,3-dihydro-benzo[b][1,4]diazepin-2-one derivatives: Part 4. In vivo active potent and selective non-competitive metabotropic glutamate receptor 2/3 antagonists” (Bioorg Med Chem Lett, 2010)
